Test results reported in paper PMC12839112, “Synthesis and Bioactivity Assessment of Novel Quinolinone–Triazole Hybrids” (Biomolecules, 2025).

Columns and labels:
[1] = Inhibition of linoleic acid peroxidation induced by AAPH radical; conditions: 100 μM, 37 °C, pH 7.4
Procedure: The in vitro assays were performed at a concentration of 100 µM (a 10 mM stock solution in DMSO was used, from which several dilutions were made for the determination of IC50 values), at least in triplicate, and the standard deviation of absorbance was less than 10% of the mean. The compounds were diluted in 0.1% DMSO under sonification in an appropriate buffer in several dilutions. Statistical comparisons were made using Student’s t-test. A statistically significant difference was defined as p < 0.05. The results were compared to the corresponding reference compounds.
The determination of the ability of the synthesized compounds to inhibit linoleic acid peroxidation induced by the radical initiator 2,2-Azobis(2-amidinopropane) dihydrochloride (AAPH) was performed according to Hadjipavlou-Litina et al.. Ten microliters of the 16 mM sodium linoleate solution were added to the UV cuvette containing 0.93 mL of a 0.05 M phosphate buffer, pH 7.4, pre-thermostated at 37 °C. The oxidation reaction was initiated at 37 °C under air by the addition of 50 µL of a 40 mM AAPH solution, which was used as a free radical initiator. Oxidation was carried out in the presence of aliquots (10 µL) in the assay without antioxidants and monitored at 234 nm. Lipid oxidation was recorded in the presence of the same level of DMSO served as a negative control. results are compared to the appropriate standard compound Trolox.
In an attempt to assess the in vitro antioxidant potential of the synthesized compounds, their inhibitory activity against lipid peroxidation of linoleic acid sodium salt was examined, induced by AAPH radical under atmospheric oxygen at 37 °C. The anti-lipid peroxidation was recorded with UV spectrophotometrically. The assay is a quick and widely used method for the assessment of antioxidant activity.

A549 cell line = experiment: Cytotoxicity, MTT assay, A549 cells; conditions: Homo sapiens, A549, 24 h, read-out: % Cytotoxicity A549 (100 μΜ)
Procedure: (§1) The determination of the cell viability of HaCaT cells and the cell toxicity of A549 and A375 cell lines was performed according to Myriagkou et al. [57], via the MTT (3-(4,5-dimethylthiazol-2-yl)-2,5-diphenyltetrazolium bromide) assay. In a 96-well plate, cells were seeded at specific concentrations (30 × 10^4 cells/mL for HaCaT cells and 20 × 10^4 cells/mL for A549 and A375 cells) and incubated (37 °C, 5% CO2) for 24 h. Following this first incubation period, solutions of the tested compounds at various concentrations were added to the cells, and the plates were incubated for an additional 24 h. Upon the second incubation period, the appropriate volume of MTT solution (1 mg/mL in PBS, filtrated through a 0.22-μm filter) was added to each well, and the plate was incubated for 4 h, during which formazan crystals were formed. The crystals were dissolved by addition of 100 μL od DMSO in each cell and after 30 min of stirring, the absorbance was recorded at 450 nm using a microplate reader. All tests were undertaken on three replicates and compared to the control (untreated cells), the blank (medium), and the reference control (cells treated with 100 μM silibinin).
(§2) The cytotoxicity of the novel compounds was also measured via the mehtylthiazol tetrazolium (MTT) assay.

A375 cell line = experiment: Cytotoxicity, MTT assay, A375 cells; conditions: Homo sapiens, A-375, 24 h, read-out: % Cytotoxicity A375 (100 μΜ)
Procedure: as §1, §2

[2] = Cell viability, MTT assay, HaCaT cells; conditions: human
Procedure: as §1, §2

[3] = target: T1, soybean lipoxygenase (LOX) (Glycine max, UniProt P08170); experiment: Soybean LOX inhibition in vitro; assay type: biochemical; conditions: for IC50: sodium linoleate substrate; for inhibition at 100 µM: 100 μM (0.1 mM), read-out: Inhibition of LOX (% at 100 μΜ)
T1 sequence (P08170 1-839): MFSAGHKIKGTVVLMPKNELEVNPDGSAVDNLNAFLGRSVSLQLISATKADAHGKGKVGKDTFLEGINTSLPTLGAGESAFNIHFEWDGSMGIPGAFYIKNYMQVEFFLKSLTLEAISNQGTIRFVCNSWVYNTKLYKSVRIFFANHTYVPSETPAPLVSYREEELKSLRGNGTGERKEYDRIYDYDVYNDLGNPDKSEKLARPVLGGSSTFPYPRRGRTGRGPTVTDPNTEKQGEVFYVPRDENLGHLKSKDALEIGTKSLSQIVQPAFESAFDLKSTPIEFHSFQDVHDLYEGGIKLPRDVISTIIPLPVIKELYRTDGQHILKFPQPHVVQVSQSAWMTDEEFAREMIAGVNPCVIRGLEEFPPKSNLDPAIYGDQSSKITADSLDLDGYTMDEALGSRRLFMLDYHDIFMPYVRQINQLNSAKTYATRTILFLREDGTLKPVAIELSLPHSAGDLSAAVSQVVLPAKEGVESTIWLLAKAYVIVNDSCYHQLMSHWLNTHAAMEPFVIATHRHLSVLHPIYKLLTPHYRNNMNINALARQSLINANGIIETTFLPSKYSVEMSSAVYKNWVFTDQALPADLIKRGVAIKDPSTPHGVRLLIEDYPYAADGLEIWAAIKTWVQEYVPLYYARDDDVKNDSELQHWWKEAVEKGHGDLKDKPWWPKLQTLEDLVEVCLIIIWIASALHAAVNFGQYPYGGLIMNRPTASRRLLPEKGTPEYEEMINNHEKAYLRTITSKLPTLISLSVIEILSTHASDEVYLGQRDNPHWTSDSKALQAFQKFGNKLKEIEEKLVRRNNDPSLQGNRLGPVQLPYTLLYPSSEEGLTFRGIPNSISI
Procedure: The compounds were diluted in 0.1% DMSO under sonification in an appropriate buffer in several dilutions. Statistical comparisons were made using Student’s t-test. A statistically significant difference was defined as p < 0.05.
The determination of the inhibition of soybean LOX for the synthesized compounds was performed according to Hadjipavlou-Litina et al.. The tested compounds were incubated at room temperature with sodium linoleate (0.1 mM) and 0.2 mL of enzyme solution (1/9 × 10^−4 w/v in saline). The method was based on the conversion of sodium linoleate to 13-hydroperoxylinoleic acid at 234 nm. In order to determine the […] values, different concentrations were used.
As evidence of anti-inflammatory activity, the quinolinone derivatives were examined for their ability to inhibit soybean lipoxygenase (LOX). LOX catalyzes the cleavage of arachidonic acid to leukotrienes that are found to play a crucial role in the pathogenesis of some inflammatory diseases.

in vitro = conditions: human
Procedure: as §1, §2

IC50 [3]	SMILES	Inhibition of Linoleic Acid Peroxidation (% at 100 μΜ) [1]	cytotoxicity at 100 µM (A549 cell line)	cytotoxicity at 100 µM (A375 cell line)	viability at 24 h, 100 µM [2]	inhibition at 100 µM [3]	viability at 24 h, 100 µM (in vitro)
	C#CCNC(=O)c1c(O)c2ccccc2n(C)c1=O [4a, 4-hydroxy-1-methyl-2-oxo-N-(prop-2-yn-1-yl)-1,2-dihydroquinoline-3-carboxamide]	42.7%	0%	7%	61.5%		
22.5 µM	C#CCNC(=O)c1c(O)c2ccccc2n(CC)c1=O [4c, 1-ethyl-4-hydroxy-2-oxo-N-(prop-2-yn-1-yl)-1,2-dihydroquinoline-3-carboxamide]	100%	16.4%	0.2%	90.5%		
	C#CCNC(=O)c1c(O)c2ccccc2n(CCCc2ccccc2)c1=O [4f, 4-hydroxy-2-oxo-1-(3-phenylpropyl)-N-(prop-2-yn-1-yl)-1,2-dihydroquinoline-3-carboxamide]	81.1%	0%	0%		49.3%	76.9%
51.2 µM	C#CCNC(=O)c1c(O)c2ccccc2n(CC=Cc2ccccc2)c1=O [4g, 1-cinnamyl-4-hydroxy-2-oxo-N-(prop-2-yn-1-yl)-1,2-dihydroquinoline-3-carboxamide]	27.6%	35.2%	11.7%	100%		
10 µM	Cn1c(=O)c(C(=O)NCc2cn(Cc3ccccc3)nn2)c(O)c2ccccc21 [5a, N-((1-benzyl-1H-1,2,3-triazol-4-yl)methyl)-4-hydroxy-1-methyl-2-oxo-1,2-dihydroquinoline-3-carboxamide]	98.0%	24.2%	0%	100%		
51.5 µM	CCn1c(=O)c(C(=O)NCc2cn(Cc3ccccc3)nn2)c(O)c2ccccc21 [5c, N-((1-benzyl-1H-1,2,3-triazol-4-yl)methyl)-1-ethyl-4-hydroxy-2-oxo-1,2-dihydroquinoline-3-carboxamide]	94.0%	0%	0%	100%		
47.5 µM	CCn1c(=O)c(C(=O)NCc2cn(CCCc3ccccc3)nn2)c(O)c2ccccc21 [5d, 1-ethyl-4-hydroxy-2-oxo-N-((1-(3-phenylpropyl)-1H-1,2,3-triazol-4-yl)methyl)-1,2-dihydroquinoline-3-carboxamide]	92.0%	28.9%	10.5%	99.6%		
45 µM	CCn1c(=O)c(C(=O)NCc2cn(C/C=C/c3ccccc3)nn2)c(O)c2ccccc21 [5e, (E)-N-((1-cinnamyl-1H-1,2,3-triazol-4-yl)methyl)-1-ethyl-4-hydroxy-2-oxo-1,2-dihydroquinoline-3-carboxamide]	91.0%	7.3%	35.2%	27.6%		
75 µM	CC(C)=CCn1c(=O)c(C(=O)NCc2cn(Cc3ccccc3)nn2)c(O)c2ccccc21 [5g, N-((1-benzyl-1H-1,2,3-triazol-4-yl)methyl)-4-hydroxy-1-(3-methylbut-2-en-1-yl)-2-oxo-1,2-dihydroquinoline-3-carboxamide]	83.0%	13.4%	46.8%	100%		
	CC(C)=CCn1cc(CNC(=O)c2c(O)c3ccccc3n(CC=Cc3ccccc3)c2=O)nn1 [5h, 1-cinnamyl-4-hydroxy-N-((1-(3-methylbut-2-en-1-yl)-1H-1,2,3-triazol-4-yl)methyl)-2-oxo-1,2-dihydroquinoline-3-carboxamide]	18.7%	0%	0%	98.9%	44.5%	
70 µM	CCn1c(=O)c(C(=O)NCc2cn(CC=C(C)C)nn2)c(O)c2ccccc21 [5i, 1-ethyl-4-hydroxy-N-((1-(3-methylbut-2-en-1-yl)-1H-1,2,3-triazol-4-yl)methyl)-2-oxo-1,2-dihydroquinoline-3-carboxamide]	96.0%					
	COc1cc(C2Oc3cc([C@H]4Oc5cc(O)cc(O)c5C(=O)[C@@H]4O)ccc3OC2CO)ccc1O (some centres unmarked) [Silibinin, silibinin, reference compound]		57.4%	12.6%	47.2%		
	Cc1c(C)c2c(c(C)c1O)CCC(C)(C(=O)O)O2 (centres unmarked) [Trolox, reference compound]	88.0%					

SMILES	IC50 [3]	Inhibition of Linoleic Acid Peroxidation (% at 100 μΜ) [1]	cytotoxicity at 100 µM (A549 cell line)	cytotoxicity at 100 µM (A375 cell line)	viability at 24 h, 100 µM [2]	inhibition at 100 µM [3]	viability at 24 h, 100 µM (in vitro)
C#CCNC(=O)c1c(O)c2ccccc2n(Cc2ccccc2)c1=O [4b, 1-benzyl-4-hydroxy-2-oxo-N-(prop-2-yn-1-yl)-1,2-dihydroquinoline-3-carboxamide]	43.2 µM	14.7%	45.7%	7.6%	88.7%		
C#CCNC(=O)c1c(O)c2ccccc2n(CCCCCCCC)c1=O [4e, 4-hydroxy-1-octyl-2-oxo-N-(prop-2-yn-1-yl)-1,2-dihydroquinoline-3-carboxamide]	48.3 µM	34.9%	33.7%	22.6%	76.2%		
O=C(NCc1cn(Cc2ccccc2)nn1)c1c(O)c2ccccc2n(Cc2ccccc2)c1=O [5b, 1-benzyl-N-((1-benzyl-1H-1,2,3-triazol-4-yl)methyl)-4-hydroxy-2-oxo-1,2-dihydroquinoline-3-carboxamide]	46 µM	89.0%	49.9%	0%	86.5%		
O=C(NCc1cn(Cc2ccccc2)nn1)c1c(O)c2ccccc2n(CCCc2ccccc2)c1=O [5f, N-((1-benzyl-1H-1,2,3-triazol-4-yl)methyl)-4-hydroxy-2-oxo-1-(3-phenylpropyl)-1,2-dihydroquinoline-3-carboxamide]	50 µM	98.0%	12.5%	23.7%	100%		
CC(C)=CCn1cc(CNC(=O)c2c(O)c3ccccc3n(Cc3ccccc3)c2=O)nn1 [5j, 1-benzyl-4-hydroxy-N-((1-(3-methylbut-2-en-1-yl)-1H-1,2,3-triazol-4-yl)methyl)-2-oxo-1,2-dihydroquinoline-3-carboxamide]	41 µM	92.0%	18.8%	0%	100%		
